Patent publication US20090004185A1, “AMINO-SUBSTITUTED QUINAZOLINE DERIVATIVES AS INHIBITORS OF BETA-CATENIN/TCF-4 PATHWAY AND CANCER TREATMENT AGENTS” (WYETH, priority 2007, published 2009)

Assays:
β-catenin/Tcf-4 = test: cells; format: cell-based; conditions: 24 hours of incubation with compound, ratio Firefly/Renilla luciferase
Text: Background cell line: SW480 colorectal carcinoma DNA constructs:
1) Tcf-4-Luc: Tcf-4 binding sites driving Firefly Luciferase in the pGL3 vector—to measure the activity of β-catenin/Tcf-4;
(§1) 2) SV40-Luc: SV40 binding site driving Firefly Luciferase in the pGL3 vector—as a control for non-specific inhibitors; and
(§2) 3) SV40-R-Luc: SV40 binding site driving Renilla Luciferase in the pGL3 vector—as an internal control for cell number and toxicity.
This screen uses 3 cell lines derived from SW480 and selected to contain the above luciferase reporters integrated into their chromosomes as follows: […]
(§3) Cells: Tcf22C11 and SV5A8 were grown in the presence of 500 μg/ml G418 and Tcf 33.13 was grown in the presence of 500 μg/ml G418+125 μg/ml Zeocin to maintain the integrated reporters. The cells were trypsinized and plated at 1×10^4 cells/well in opaque 96 well plates.
The compounds were diluted as follows: The compounds were stored frozen in dimethyl sulfoxide (DMSO) at […]. Compounds were initially titrated in DMSO to make a 1000×DMSO stock solution. Compounds were then diluted 1:25 into media/DMSO (DMEM+10% FBS+9% DMSO). Using the Biomek Multimek, the diluted compounds were mixed well and immediately added to the plated cells in a 1:40 dilution. The final concentration of DMSO in the assay plates was 0.316% DMSO.
(§4) Assay Readout: The luciferase signal was detected using a luciferase detection kit from Promega. Until December 2003, Promega's Dual-Luciferase® Reporter (DLR™) Assay System was used to detect luciferase activity. Briefly, after 24 hours of incubation with compound, culture media was removed by aspiration and 20 ul of passive lysis buffer (Promega) per well was added. The plates were shaken for 15 min. Firefly substrate was then added and the resulting luminescence was immediately read on a CCD camera imaging device or a luminometer. After quantifying the firefly luminescence, the reaction was quenched, and the Renilla luciferase reaction was initiated simultaneously by adding Stop & Glo® Reagent to the same sample. Renilla luciferase was then quantified using the CCD camera or luminometer.
Promega's Dual-Glo™ Luciferase Assay System can be used for luciferase detection. […] Briefly, after 24 hours of incubation with compound, culture media was removed by aspiration and 75 ul of fresh medium was added. Add 75 ul of Dual-Glo Luciferase Reagent (Promega) to each well and mix by shaking for 10 minutes on a plate shaker. Then, measure the firefly luminescence on a CCD camera imaging device or a luminometer. After quantifying the firefly luminescence, add 75 ul of Dual-Glo Stop & Glo Reagent (Promega) to each well and mix for 10 minutes. Renilla luciferase was then quantified using the CCD camera or luminometer.
(§5) This assay was meant to confirm primary leads and determine IC50s. Compounds were tested at titrated dilutions. The raw data for this assay was reported in protocol 2463-B. Protocol 2463-C contains the IC50 calculations based on the raw data. The data calculations were done as follows:
(§6) The data was expressed as % of control for both Firefly and Renilla Luciferase. The ratio of FF/Renilla (F/R) was then calculated and averaged between duplicate plates. The data was then plotted using LSW Data Analysis in Microsoft Excel. IC50s were determined by plotting the data in the LSW Data Analysis program using model 33. The IC50s (nM) for all three cell lines were reported.

SV40-Luc = SV40-Luc control luciferase reporter assay, SV 5A8 cell line (SV40-Luc and SV40-R-Luc), control for non-specific inhibitors; format: cell-based, human; conditions: SV 5A8 cells derived from SW480, 24 hours of incubation with compound, ratio Firefly/Renilla luciferase
Text: Background cell line: SW480 colorectal carcinoma DNA constructs: […]
as §1, §2
This screen uses 3 cell lines derived from SW480 and selected to contain the above luciferase reporters integrated into their chromosomes as follows:
SV 5A8—SV40-Luc and SV40-R-Luc
as §3
Compounds: 20-24 hours after cell plating, compounds were added at titrated concentrations between […]. The compounds were diluted as follows: The compounds were stored frozen in dimethyl sulfoxide (DMSO) at […]. Compounds were initially titrated in DMSO to make a 1000×DMSO stock solution. Compounds were then diluted 1:25 into media/DMSO (DMEM+10% FBS+9% DMSO). Using the Biomek Multimek, the diluted compounds were mixed well and immediately added to the plated cells in a 1:40 dilution. The final concentration of DMSO in the assay plates was 0.316% DMSO.
as §4
Promega's Dual-Glo™ Luciferase Assay System can be used for luciferase detection. It was similar to the DLR Assay, however, unlike the DLR which has to be read immediately due to decaying signal, the signal in the Dual-Glo™ Luciferase Assay was stable for up to 2 hours. Briefly, after 24 hours of incubation with compound, culture media was removed by aspiration and 75 ul of fresh medium was added. Add 75 ul of Dual-Glo Luciferase Reagent (Promega) to each well and mix by shaking for 10 minutes on a plate shaker. Then, measure the firefly luminescence on a CCD camera imaging device or a luminometer. After quantifying the firefly luminescence, add 75 ul of Dual-Glo Stop & Glo Reagent (Promega) to each well and mix for 10 minutes. Renilla luciferase was then quantified using the CCD camera or luminometer.
as §5, §6

[1] = Homo sapiens, SW480, 24 h, Tcf 33.13 cells derived from SW480
[2] = Homo sapiens, Tcf22C11, 24 h, Tcf 22C11 cells derived from SW480
[3] = Tcf 22C11 cells derived from SW480
[4] = Tcf 33.13 cells derived from SW480

| Molecule | IC50 (β-catenin/Tcf-4; [1]) | IC50 (β-catenin/Tcf-4; [2]) | IC50 (SV40-Luc; Homo sapiens, SV5A8, 24 h) | IC50 (β-catenin/Tcf-4; [3]) | IC50 (β-catenin/Tcf-4; [4]) | IC50 (SV40-Luc) |
| --- | --- | --- | --- | --- | --- | --- |
| CC(=O)N1CCCN(c2nc(NCc3ccc(NC(=O)c4ccc(F)cc4)cc3)c3ccc(C)cc3n2)CC1 [Example 223, N-[4-({[2-(4-acetyl-1,4-diazepan-1-yl)-7-methylquinazolin-4-yl]amino}methyl)phenyl]-4-fluorobenzamide] | 2660 nM | 4460 nM | > 15600 nM | – | – | – |
| CN(C)c1nc(NCc2ccc(NC(=O)c3ccc(Cl)cc3)cc2)c2cc(C(F)(F)F)ccc2n1 [Example 161, 4-chloro-N-[4-({[2-(dimethylamino)-6-(trifluoromethyl)quinazolin-4-yl]amino}methyl)phenyl]benzamide] | 1520 nM | 1710 nM | > 10000 nM | – | – | – |
| Cc1ccc2c(NCc3ccc(NC(=O)c4ccc(F)cc4)cc3)nc(N(C)Cc3ccco3)nc2c1 [Example 221, 4-fluoro-N-{4-[({2-[(2-furylmethyl)(methyl)amino]-7-methylquinazolin-4-yl}amino)methyl]phenyl}benzamide] | 1060 nM | 1240 nM | > 8200 nM | – | – | – |
| Cc1ccc2c(NCc3ccc(NC(=O)C4CCN(Cc5ccc(F)cc5)CC4)cc3)nc(N(C)C)nc2c1 [Example 251, N-[4-({[2-(dimethylamino)-7-methylquinazolin-4-yl]amino}methyl)phenyl]-1-(4-fluorobenzyl)piperidine-4-carboxamide] | 215 nM | 262 nM | > 8340 nM | – | – | – |
| CNc1nc(NCc2ccc(NC(=O)c3ccc(F)c(F)c3)cc2)c2c(C)cccc2n1 [Example 189, 3,4-difluoro-N-[4-({[5-methyl-2-(methylamino)quinazolin-4-yl]amino}methyl)phenyl]benzamide] | 1140 nM | 1830 nM | > 4570 nM | – | – | – |
| 4-chloro-2-fluoro-N-[4-({[6-methyl-2-(methylamino)quinazolin-4-yl]amino}methyl)phenyl]benzamide [Example 26] | – | – | – | 739 nM | 614 nM | > 2780 nM |
| O=C(Nc1ccc(CNc2nc(N3CCCC3)nc3ccc(C(F)(F)F)cc23)cc1)C1CCN(Cc2ccc(F)cc2)CC1 [Example 156, 1-(4-fluorobenzyl)-N-[4-({[2-pyrrolidin-1-yl-6-(trifluoromethyl)quinazolin-4-yl]amino}methyl)phenyl]piperidine-4-carboxamide] | 3690 nM | > 4120 nM | > 8240 nM | – | – | – |
| Cc1ccc2c(NCc3ccc(NC(=O)C4CCN(CC(C)C)CC4)cc3)nc(N(C)C)nc2c1 [Example 244, N-[4-({[2-(dimethylamino)-7-methylquinazolin-4-yl]amino}methyl)phenyl]-1-isobutylpiperidine-4-carboxamide] | 962 nM | 650 nM | > 10500 nM | – | – | – |
| Cc1ccc2c(NCc3ccc(NC(=O)c4ccc(Cl)nc4)cc3)nc(N(C)C)nc2c1 [Example 242, 6-chloro-N-[4-({[2-(dimethylamino)-7-methylquinazolin-4-yl]amino}methyl)phenyl]nicotinamide] | 336 nM | 318 nM | > 5590 nM | – | – | – |
| O=C(Nc1ccc(CNc2nc(N3CCC3)nc3ccc(C(F)(F)F)cc23)cc1)c1ccc(Cl)cc1 [Example 162, N-[4-({[2-azetidin-1-yl-6-(trifluoromethyl)quinazolin-4-yl]amino}methyl)phenyl]-4-chlorobenzamide] | 2230 nM | 3580 nM | > 9770 nM | – | – | – |
| CNc1nc(NCc2ccc(NC(=O)c3cc(F)c(Cl)nc3Cl)cc2)c2ccccc2n1 [Example 8, 2,6-dichloro-5-fluoro-N-[4-({[2-(methylamino)quinazolin-4-yl]amino}methyl)phenyl]nicotinamide] | 1530 nM | 1770 nM | > 5300 nM | – | – | – |
| CNc1nc(NCc2ccc(NC(=O)c3ccc(Cl)cc3F)cc2)c2ccccc2n1 [Example 14, 4-chloro-2-fluoro-N-[4-({[2-(methylamino)quinazolin-4-yl]amino}methyl)phenyl]benzamide] | 1290 nM | 891 nM | > 2870 nM | – | – | – |
| Cc1ccc2nc(N3CCN(C)CC3)nc(NCc3ccc(NC(=O)c4ccc(F)cc4)cc3)c2c1 [Example 46, 4-fluoro-N-((6-methyl-2-(4-methylpiperazin-1-yl)quinazolin-4-ylamino)methyl-phenyl)benzamide] | – | – | – | > 20800 nM | > 20800 nM | > 20800 nM |
| Cc1ccc2c(NCc3ccc(NC(=O)c4ccc(F)cc4)cc3)nc(N3CCN(CC(=O)N4CCCC4)CC3)nc2c1 [Example 213, 4-fluoro-N-{4-[({7-methyl-2-[4-(2-oxo-2-pyrrolidin-1-ylethyl)piperazin-1-yl]quinazolin-4-yl}amino)methyl]phenyl}benzamide] | 1390 nM | 1710 nM | > 12400 nM | – | – | – |
| CN(C)c1nc(NCc2ccc(NC(=O)Nc3ccc(F)cc3)cc2)c2ccccc2n1 [Example 182, N-[4-({[2-(dimethylamino)quinazolin-4-yl]amino}methyl)phenyl]-N′-(4-fluorophenyl)urea] | 4320 nM | 4280 nM | > 11600 nM | – | – | – |
| Cc1cccc2c(NCc3ccc(NC(=O)C4CCN(Cc5ccccc5)CC4)cc3)nc(N(C)C)nc12 [Example 76, 1-benzyl-N-[4-({[2-(dimethylamino)-8-methylquinazolin-4-yl]amino}methyl)phenyl]piperidine-4-carboxamide] | 2150 nM | 1560 nM | > 9170 nM | – | – | – |
| CNc1nc(NCc2ccc(NC(=O)c3cc(F)cc(F)c3)cc2)c2cc(C)ccc2n1 [Example 41, 3,5-difluoro-N-[4-({[6-methyl-2-(methylamino)quinazolin-4-yl]amino}methyl)phenyl]benzamide] | 1650 nM | 2320 nM | > 5770 nM | – | – | – |
| CNc1nc(N[C@H](C)c2ccc(NC(=O)c3ccc(F)cc3)cc2)c2cccc(C)c2n1 [Example 276, (R)-4-fluoro-N-(4-(1-(8-methyl-2-(methylamino)quinazolin-4-ylamino)ethyl)phenyl)benzamide] | 494 nM | 653 nM | > 2490 nM | – | – | – |
| CN(C)CC#Cc1ccc2nc(N(C)C)nc(NCc3ccc(NC(=O)c4ccc(F)cc4)cc3)c2c1 [Example 69, N-{4-[({2-(dimethylamino)-6-[3-(dimethylamino)prop-1-yn-1-yl]quinazolin-4-yl}amino)methyl]phenyl}-4-fluorobenzamide] | 1940 nM | 2010 nM | > 20100 nM | – | – | – |
